Laboratory results as given in article PMC5017735, “A Novel Peptide Derived from the Fusion Protein Heptad Repeat Inhibits Replication of Subacute Sclerosing Panencephalitis Virus In Vitro and In Vivo” (PLoS ONE, 2016).
Peptide text beside a SMILES is read from it.

Assays:
MV Edmonston strain = experiment: Viral plaque reduction assay, measles virus in Vero cells; assay type: cell-based; conditions: Vero cells
Procedure: (§1) African green monkey kidney (Vero) cells and Vero cells expressing human SLAM (Vero/SLAM cells) were used in all experiments. The growth medium for Vero cells comprised minimal essential medium (MEM) supplemented with 10% heat-inactivated newborn bovine serum, penicillin G (100 IU/ml), streptomycin (100 μg/ml), and L-glutamine (300 μg/ml). The same growth medium, which was further supplemented with G418 (400 μg/ml), was used for Vero/SLAM cells. Cells were seeded into the wells (22 mm) of 12-well tissue culture plates at 1 × 10^5 cells/well and incubated at 37°C in a 10% CO2 incubator for 3 days, at which time they had just reached confluence. The virus strains used were human MV Edmonston strain and SSPE Yamagata-1 [34], which was originally isolated from the brain of an SSPE patient. The Edmonston strain of MV was used to inoculate Vero/SLAM cells and harvested after freeze–thawing infected cells. The SSPE Yamagata-1 strain was cultured in Vero/SLAM cells, harvested by trypsinization, prepared as an infected cell suspension in the Vero/SLAM cell medium supplemented with 10% dimethyl sulfoxide, and stored at −80°C until use.
(§2) Screening was performed to evaluate the antiviral effects of each synthetic peptide against the MV and SSPE viruses using the viral plaque reduction assay. Based on the results of the peptide screening, the 50% effective concentration (EC50), i.e., the concentration of compounds required to inhibit virus plaque formation by 50%, was also determined. The Human MV Edmonston strain was used to produce cell-free virions, which yielded a reproducible number of syncytia [generally 200–300 plaque-forming units (PFUs)] in the control wells. The SSPE virus was also used to yield a reproducible number of syncytia (generally 70–150 PFU) in control wells. In the peptide screening assay, each synthetic peptide was used at a concentration of 10 μM. IFN-α and enfuvirtide, a peptide fusion inhibitor of HIV-1, were used as controls at a concentration of 250 IU/ml and 10 μM, respectively.

SSPE virus = experiment: Time-of-addition experiments, SSPE virus in Vero cells; assay type: cell-based, SSPE virus (variant measles virus)
Procedure: Synthetic peptides, M1 and M2EK (10 μM each) were used in time-of-addition experiments. Each peptide was added to Vero cells at three distinct time points: prior to infection (pretreatment with the compound), at the same time as the virus infection (simultaneous infection), or post-infection (post-entry). The SSPE virus was prepared to yield a reproducible number of syncytia in untreated control wells (approximately 50–100/well). In the pretreatment assay, peptide was added to confluent cells and incubated at 37°C for 30 min, and the cell cultures were washed with MEM before viral inoculation. Cells were then challenged with the SSPE virus at 0°C for 30 min. In the simultaneous infection assay, SSPE virus with peptide was inoculated at 0°C for 30 min. After the adsorption, the cell cultures were subsequently washed with MEM, and growth medium containing 0.75% methylcellulose was overlaid on the cell cultures, followed by incubation for 3 days in both pretreatment and simultaneous infection assays. In the post-entry assay, cells were challenged with the SSPE virus at 0°C for 30 min. After adsorption, the cell cultures were subsequently washed with MEM and peptide, which was prepared in growth medium containing 0.75% methylcellulose, was subsequently overlaid on the cell cultures at distinct time points. The starting point when cells were incubated at 0°C for 30 min was defined as t0.

SSPE Yamagata-1 strain [1] = experiment: Viral RNA quantification in whole brain of SSPE virus-infected nude mice; assay type: in vivo, BALB/cAJcl-nu/nu mice; conditions: day 14 post-infection; intracranial peptide; n = 5 per group; P < 0.05
Procedure: Mice were divided in three groups (n = 5 for each cage) and housed with free access to both water and food and monitored daily. Mice were infected with SSPE virus intracranially in the same as animal survival experiments. Euthanasia was performed by cervical dislocation under isoflurane anesthesia on day 14 post-infection. The brain of each mouse was immediately harvested and mechanically homogenized with 2 ml Vero/SLAM cell growth medium using a PRO200 handheld or post-mounted homogenizer (PRO Scientific Inc., CT, USA). The homogenized brains were stored at −80°C. Viral RNA was extracted using ISOGEN-LS, and cDNA was synthesized using a reverse transcription kit (PrimeScript RT-reagent kit). MV RNA was quantified using a TaqMan real-time polymerase chain reaction assay, as previously described. The primer and probe were designed based on the MV Edmonston strain N gene, as previously reported. PCR amplification was performed using a 7300 Real-Time PCR system (Applied Biosystem). The control plasmid was produced by Dragon Genomics Center (Takara Bio, Mie, Japan) based on the MV Edmonston strain N gene (position 1321–1500).

SSPE Yamagata-1 strain [2] = experiment: Viral plaque reduction assay, SSPE virus in Vero cells; assay type: cell-based, SSPE virus (variant measles virus)
Procedure: as §1, §2

Vero/SLAM cells = experiment: Methyl tetrazolium cytotoxicity assay, Vero/SLAM cells; assay type: cell-based, African green monkey; conditions: confluent Vero/SLAM cells, 24 h, 37°C
Procedure: (§3) Peptide cytotoxicity was determined using the methyl tetrazolium assay. Five-fold serial dilutions of peptides were added to confluent Vero or Vero/SLAM cells. Cells were then incubated at 37°C for 24 h, and the number of viable cells was determined using 3-(4,5-dimethyllthiazol-2-yl)-2,5-diphenylterazolium bromide (Sigma–Aldrich, Tokyo, Japan). The 50% cytotoxic concentration (CC50), which was defined as the concentration required to reduce the cell viability by 50% relative to that of untreated controls, was determined. The selectivity index (SI) was defined as the ratio of the CC50 relative to the EC50 value.

[3] = In vivo toxicity, mice administered peptides alone; parameters: species or system BALB/cAJcl-nu/nu mice; conditions: peptide 100 μM intracranial, no virus infection
Procedure: (§4) Based on a previous report, but with slight modifications, 3-week-old female BALB/cAJcl-nu/nu mice (CLEA Japan Inc., Tokyo, Japan) were used in the animal experiments. Mice were divided in four groups (n = 6 for each cage) and housed with free access to both water and food and monitored daily. The mice were SSPE virus-infected or mock-infected (MEM alone) intracranially. An SSPE virus-infected cell suspension containing 250 PFU/ 30 μl (100% lethal dose) was inoculated into the subarachnoid space of nude mice using a 27-gauge double needle at a depth of 2 mm. Each compound was prepared at a concentration of 100 μM and was injected intracranially at 0 (mixed with viruses), 6, and 24 h after the initial virus inoculation. All injections were performed under inhalational anesthesia with isoflurane. Each mouse was checked for neurological symptoms and weighed daily. The ethical endpoint was defined as <75% of their maximum weight because most mice would die within 24 h. On attaining this endpoint, the mice were sacrificed by cervical dislocation under inhalational anesthesia with isoflurane. In this experiment, five mice died of natural causes before the ethical endpoint; however, all mice had neurological symptoms and 9.5%, 13.2%,14.5%, 15.8%, 16.4% weight loss (one each) relative to their maximum weight. This study was approved by the control of the Animal Research Committee in accordance with the Guidelines on Animal Experiments in Fukushima Medical University and the Rules for the Protection and Care of Animals (approval number: 23038).

SSPE Yamagata-1 strain [4] = experiment: Viral plaque reduction assay, SSPE virus in Vero/SLAM cells; assay type: cell-based, SSPE virus (variant measles virus)
Procedure: as §1, §2

SSPE Yamagata-1 strain [5] = experiment: Animal survival experiment, SSPE virus-infected nude mouse model; assay type: in vivo, BALB/cAJcl-nu/nu mice; conditions: SSPE virus 250 PFU intracranial; peptide 100 μM intracranial at 0, 6 and 24 h; n = 6; control group 0%
Procedure: as §4, with “This study was approved by the control of the Animal Research Committee in accordance with the Guidelines on Animal Experiments in Fukushima Medical University and the Rules for the Protection and Care of Animals (approval number: 23038).” left out

Vero cells = experiment: Methyl tetrazolium cytotoxicity assay, Vero cells; assay type: cell-based, African green monkey; conditions: confluent Vero cells, 24 h, 37°C
Procedure: as §3

[6] = selectivity index, ratio of CC50 relative to EC50

## CC[C@H](C)[C@H](NC(=O)[C@H](CCC(=O)O)NC(=O)[C@H](CCC(=O)O)NC(=O)[C@H](CO)NC(=O)[C@H](CCCCN)NC(=O)[C@H](CCCCN)NC(=O)[C@H](CC(C)C)NC(=O)[C@H](CC(C)C)NC(=O)[C@H](CCC(=O)O)NC(=O)[C@H](CCC(=O)O)NC(=O)[C@H](C)NC(=O)[C@H](CCCCN)NC(=O)[C@H](CCCCN)NC(=O)[C@H](CC(C)C)NC(=O)[C@H](CCCCN)NC(=O)[C@H](CCC(=O)O)NC(=O)[C@H](CCC(=O)O)NC(=O)[C@H](C)NC(=O)[C@H](CCCCN)NC(=O)[C@H](CCCCN)NC(=O)[C@H](CC(C)C)NC(=O)[C@H](CC(N)=O)NC(=O)[C@H](CCC(=O)O)NC(=O)[C@H](CCC(=O)O)NC(=O)[C@@H](NC(C)=O)C(C)C)C(=O)N[C@@H](CC(C)C)C(=O)N[C@@H](CCCCN)C(=O)N[C@@H](CCCCN)C(=O)N[C@@H](CCSC)C(=O)N[C@@H](CCC(=O)O)C(=O)N[C@@H](CCC(=O)O)C(=O)N[C@@H](CC(C)C)C(=O)N[C@@H](CO)C(=O)N[C@@H](CCCCN)C(=O)N[C@@H](CCCCN)C(N)=O [Peptide M2EK] (Ac-VEENLKKAEEKLKKAEELLKKSEEILKKMEELSKK-NH2)
MV Edmonston strain; plaque reduction, MV Edmonston strain, mean ± SD
  EC50: 100 ± 70 nM
MV Edmonston strain; [6]
  SI, measles virus (Vero cells): >989
SSPE virus; peptide 10 μM overlaid at distinct time points after adsorption
  viral inhibitory effect, peptide added post-infection (post-entry): observed in a time-dependent manner, particularly within 24 h
SSPE virus; peptide 10 μM, pretreatment 37°C 30 min or simultaneous with SSPE virus 0°C 30 min, compared with control
  viral plaque numbers, peptide added before viral adsorption or at the same time as virus inoculation: no reduction in viral plaque numbers
SSPE Yamagata-1 strain [1]
  viral RNA copies in whole brain, lower than in M1-treated mice: approximately four
  viral RNA copies in whole brain, lower than in enfuvirtide-treated mice: approximately three
SSPE Yamagata-1 strain [2]; peptide 10 μM, Vero cells and Vero/SLAM cells (Fig 2C), duplicate, at least twice independently
  inhibition of plaque formation compared with the control group, SSPE Yamagata-1 strain (peptide screening): > 97%
SSPE Yamagata-1 strain [2]; plaque reduction, SSPE Yamagata-1 strain, Vero cells, mean ± SD
  EC50: 50 ± 30 nM
SSPE Yamagata-1 strain [2]; selectivity index, ratio of CC50 relative to EC50, Vero cells
  SI, SSPE virus (Vero cells): >2041
Vero/SLAM cells
  CC50, SSPE virus (Vero/SLAM cells): >100000 nM
[3]
  survival of mice administered with peptides alone, with no symptoms: > 45 days
SSPE Yamagata-1 strain [4]; plaque reduction, SSPE Yamagata-1 strain, mean ± SD
  EC50: 20 ± 10 nM
SSPE Yamagata-1 strain [4]; [6]
  SI, SSPE virus (Vero/SLAM cells): >6579
SSPE Yamagata-1 strain [5]
  survival rate: 67%
Vero cells
  CC50, SSPE virus (Vero cells): >100000 nM
  CC50, measles virus (Vero cells): >100000 nM
